This is an account of results in US8207154B2, “Catatonic bacteriochlorophyll derivatives” (Yeda Research and Development Co., Ltd., priority 2005, dated 2012).

In this test the test system is H5V cells. The experiment in a line: Phototoxicity assay (PDT efficacy at two incubation times), neutral red survival. The format is cell-based, mouse. The conditions noted are these: for IC50: then 10 min illumination, 12 J/cm^2. As to the method:
H5V cells (40×10^3/well) were cultured in 96-well plates for 24 h to ˜80% confluence. To determine phototoxicity, the culture medium was replaced with 100 μl/well medium, in the absence or presence of 10^−8 to 10^−6 M sensitizer, and incubated in the dark for 15 min or 3 h in the culture incubator. The plates (PDT group) were then placed in the light field at room temperature and illuminated from the bottom for 10 min (800>λ>650 nm, 12 J/cm^2). After illumination, the medium was changed to fresh culture medium. The cultures were then placed in the culture incubator and cell survival was determined 24 h later, using the neutral red survival assay described below.
Following 24 h post PDT the culture medium in the wells was replaced with 100 μl fresh medium containing 40 μg/ml neutral red. The plate was incubated for 1.5 h in a dark culture incubator. The medium was aspirated and the cells washed with 100 μl of solution containing 1% CaCl2 and 0.5% formaldehyde, which removes the unincorporated dye and fixes the cells to the substratum. The dye was then extracted from the cells into the supernatant upon addition of 100 μl 1% glacial acetic acid in 50% ethanol. After 1-2 min at room temperature, the optical density of the wells was determined in a microplate spectrophotometer using a 570 nm filter. After subtraction of assay blanks, net optical density was computed as the average value of triplicate determinations. Cell survival was calculated as the percent of the dye accumulated in the untreated control. To determine cell survival data was plotted against sensitizer concentration. These curves were then used to calculated LD50 values.
Following synthesis, the compounds described in the Examples 23 to 75 above were purified, divided into equal aliquots and lyophilized for storage (desiccated at −20° C.). The exact material content was determined by HPLC-diode array detection, and the PDT efficacy was evaluated at two incubation times as described in the experimental section.

Setting [1] is: 15 min incubation in the dark, read-out: IC50 15 min.
The mark [2] stands for this setting: 3 h incubation in the dark, read-out: IC50 3 hours.

Structures are written as SMILES. Where two headings read alike, the source gives them in different places.

On to `CC[C@H]1C2=NC(=Cc3c(C(C)=O)c(C)c4[n]3[Pd][n]3c(c(C)c(C(=O)NCCN)c3=C(CC(=O)OC)C3=NC(=C4)[C@@H](C)[C@@H]3CCC(=O)NCCN)=C2)[C@@H]1C` [Compound 10, Palladium 3^1-oxo-15-methoxycarbonylmethyl-Rhodobacteriochlorin-13^1, 17^3-di(2-aminoethyl)amide], for which the IC50 – broadly, the midpoint of a concentration-inhibition curve – is, setting by setting: under setting [1], 740 nM; under setting [2], 240 nM.
With `CC[C@H]1C2=NC(=Cc3c(C(C)=O)c(C)c4[n]3[Pd][n]3c(c(C)c(C(=O)NCCN(C)C)c3=C(CC(=O)OC)C3=NC(=C4)[C@@H](C)[C@@H]3CCC(=O)O)=C2)[C@@H]1C` [Compound 25, Palladium 3^1-oxo-15-methoxycarbonylmethyl-Rhodobacteriochlorin-13^1-(2-N^2-dimethylaminoethyl)amide], the half-maximal inhibitory concentration (IC50) reads like this: under setting [1], 1100 nM; under setting [2], 750 nM.
As to `CC[C@H]1C2=NC(=Cc3c(C(C)=O)c(C)c4[n]3[Pd][n]3c(c(C)c(C(=O)NCCCN(C)C)c3=C(CC(=O)OC)C3=NC(=C4)[C@@H](C)[C@@H]3CCC(=O)O)=C2)[C@@H]1C` [Compound 26, Palladium 3^1-oxo-15-methoxycarbonylmethyl-Rhodobacteriochlorin-13^1-(3-N^2-dimethylaminopropyl)amide], the IC50 was determined as 1000 nM under setting [1] and 450 nM under setting [2].
As for `CC[C@H]1C2=NC(=Cc3c(C(C)=O)c(C)c4[n]3[Pd][n]3c(c(C)c(C(=O)NCCNCCN)c3=C(CC(=O)OC)C3=NC(=C4)[C@@H](C)[C@@H]3CCC(=O)O)=C2)[C@@H]1C` [Compound 27, Palladium 3^1-oxo-15-methoxycarbonylmethyl-Rhodobacteriochlorin-13^1-(2-[(2-aminoethyl)amino]ethyl)amide], the IC50 is, setting by setting: under setting [1], 1500 nM; under setting [2], 450 nM.
The matching figures for `CC[C@H]1C2=NC(=Cc3c(C(C)=O)c(C)c4[n]3[Pd][n]3c(c(C)c(C(=O)NCCN(CCN)CCN)c3=C(CC(=O)OC)C3=NC(=C4)[C@@H](C)[C@@H]3CCC(=O)O)=C2)[C@@H]1C` [Compound 28, Palladium 3^1-oxo-15-methoxycarbonylmethyl-Rhodobacteriochlorin-13^1-([2-bis(2-aminoethyl)amino]ethyl)amide]: 1300 nM and 380 nM.
Taken in the same sequence, the figures for `CC[C@H]1C2=NC(=Cc3c(C(C)=O)c(C)c4[n]3[Pd][n]3c(c(C)c(C(=O)NCCN5CCOCC5)c3=C(CC(=O)OC)C3=NC(=C4)[C@@H](C)[C@@H]3CCC(=O)O)=C2)[C@@H]1C` [Compound 29, Palladium 3^1-oxo-15-methoxycarbonylmethyl-Rhodobacteriochlorin-13^1-(2-morpholino-N-ethyl)amide] were 1900 nM and 1900 nM.
Taken in the same sequence, the figures for `CC[C@H]1C2=NC(=Cc3c(C(C)=O)c(C)c4[n]3[Pd][n]3c(c(C)c(C(=O)NCCN5CCNCC5)c3=C(CC(=O)OC)C3=NC(=C4)[C@@H](C)[C@@H]3CCC(=O)O)=C2)[C@@H]1C` [Compound 30, Palladium 3^1-oxo-15-methoxycarbonylmethyl-Rhodobacteriochlorin-13^1-(2-piperazino-N-ethyl)amide] were 1700 nM and 610 nM.
As for `CC[C@H]1C2=NC(=Cc3c(C(C)=O)c(C)c4[n]3[Pd][n]3c(c(C)c(C(=O)NCCNCCN(CC)CC)c3=C(CC(=O)OC)C3=NC(=C4)[C@@H](C)[C@@H]3CCC(=O)O)=C2)[C@@H]1C` [Compound 31, Palladium 3^1-oxo-15-methoxycarbonylmethyl-Rhodobacteriochlorin-13^1-(2-[(2-N^2-diethylaminoethyl)amino]ethyl)amide], the IC50 is, setting by setting: under setting [1], 2600 nM; under setting [2], 600 nM.
As to `CC[C@H]1C2=NC(=Cc3c(C(C)=O)c(C)c4[n]3[Pd][n]3c(c(C)c(C(=O)NCCCNCCCN)c3=C(CC(=O)OC)C3=NC(=C4)[C@@H](C)[C@@H]3CCC(=O)O)=C2)[C@@H]1C` [Compound 32, Palladium 3^1-oxo-15-methoxycarbonylmethyl-Rhodobacteriochlorin-13^1-(3-[(3-aminopropyl)amino]propyl)amide], the IC50 was found to be 600 nM under setting [1] and 250 nM under setting [2]. Further, where the note is “at both incubation times”, the “PDT activity relative to compound 24” value is listed as 4-5 times.
For the molecule `CC(=O)[O-].CC(=O)[O-].CC[C@H]1C2=NC(=Cc3c(C(C)=O)c(C)c4[n]3[Pd][n]3c(c(C)c(C(=O)NCC[N+](C)(C)C)c3=C(CC(=O)OC)C3=NC(=C4)[C@@H](C)[C@@H]3CCC(=O)NCC[N+](C)(C)C)=C2)[C@@H]1C` [Compound 33, Palladium 3^1-oxo-15-methoxycarbonylmethyl-Rhodobacteriochlorin-13^1, 17^3-di(2-N^3-trimethylammoniumethyl)amide diacetate salt], the IC50 was 750 nM under setting [1] and 450 nM under setting [2].
With `CC[C@H]1C2=NC(=Cc3c(C(C)=O)c(C)c4[n]3[Pd][n]3c(c(C)c(C(=O)NCCCN)c3=C(CC(=O)OC)C3=NC(=C4)[C@@H](C)[C@@H]3CCC(=O)NCCCN)=C2)[C@@H]1C` [Compound 34, Palladium 3^1-oxo-15-methoxycarbonylmethyl-Rhodobacteriochlorin-13^1, 17^3-di(3-aminopropyl)amide], the IC50 under setting [1] was 480 nM and the IC50 under setting [2] amounted to 200 nM.
`CC[C@H]1C2=NC(=Cc3c(C(C)=O)c(C)c4[n]3[Pd][n]3c(c(C)c(C(=O)NCCCCN)c3=C(CC(=O)OC)C3=NC(=C4)[C@@H](C)[C@@H]3CCC(=O)NCCCCN)=C2)[C@@H]1C` [Compound 35, Palladium 3^1-oxo-15-methoxycarbonylmethyl-Rhodobacteriochlorin-13^1, 17^3-di(4-aminobutyl)amide]: the IC50 reads like this: under setting [1], 1230 nM; under setting [2], 210 nM.
Taken in the same sequence, the figures for `CC[C@H]1C2=NC(=Cc3c(C(C)=O)c(C)c4[n]3[Pd][n]3c(c(C)c(C(=O)NCCN(C)C)c3=C(CC(=O)OC)C3=NC(=C4)[C@@H](C)[C@@H]3CCC(=O)NCCN(C)C)=C2)[C@@H]1C` [Compound 36, Palladium 3^1-oxo-15-methoxycarbonylmethyl-Rhodobacteriochlorin-13^1, 17^3-di(2-N^2-dimethylaminoethyl)amide] were 370 nM and 150 nM.
Consider `CC[C@H]1C2=NC(=Cc3c(C(C)=O)c(C)c4[n]3[Pd][n]3c(c(C)c(C(=O)NCCCN(C)C)c3=C(CC(=O)OC)C3=NC(=C4)[C@@H](C)[C@@H]3CCC(=O)NCCCN(C)C)=C2)[C@@H]1C` [Compound 37, Palladium 3^1-oxo-15-methoxycarbonylmethyl-Rhodobacteriochlorin-13^1, 17^3-di(3-N^2-dimethylaminopropyl)amide], for which the IC50 under setting [1] was found to be 750 nM and the IC50 under setting [2] amounted to 210 nM.
For `CC[C@H]1C2=NC(=Cc3c(C(C)=O)c(C)c4[n]3[Pd][n]3c(c(C)c(C(=O)NCCNCCN)c3=C(CC(=O)OC)C3=NC(=C4)[C@@H](C)[C@@H]3CCC(=O)NCCNCCN)=C2)[C@@H]1C` [Compound 38, Palladium 3^1-oxo-15-methoxycarbonylmethyl-Rhodobacteriochlorin-13^1, 17^3-di-(2-[(2-aminoethyl)amino]ethyl)amide], the half-inhibitory concentration (IC50) runs as follows: under setting [1], 440 nM; under setting [2], 160 nM.
Regarding `CCC1C2=Cc3c(C)c(C(=O)NCCNCCN(CC)CC)c4[n]3[Pd][n]3c(c(C)c(C(C)=O)c3=CC(=N2)C1C)=CC1=NC(=C4CC(=O)OC)C(CCC(=O)NCCNCCN(CC)CC)C1C` (stereo not drawn) [Compound 39, Palladium 3^1-oxo-15-methoxycarbonylmethyl-Rhodobacteriochlorin-13^1,17^3-di-(2-[(2-N^2-diethylaminoethyl)amino]ethyl) amide], the IC50 by setting is: under setting [1], 2440 nM; under setting [2], 1100 nM.
Turning to `CC[C@H]1C2=NC(=Cc3c(C(C)=O)c(C)c4[n]3[Pd][n]3c(c(C)c(C(=O)NCCN5CCOCC5)c3=C(CC(=O)OC)C3=NC(=C4)[C@@H](C)[C@@H]3CCC(=O)NCCN3CCOCC3)=C2)[C@@H]1C` [Compound 40, Palladium 3^1-oxo-15-methoxycarbonylmethyl-Rhodobacteriochlorin-13^1, 17^3-di(2-morpholino-N-ethyl)amide], the IC50 is 700 nM under setting [1] and 350 nM under setting [2].
Take `CCC1c2cc3[n-]c(c(CC(=O)OC)c4nc(cc5[n-]c(cc(n2)C1C)c(C(C)=O)c5C)C(C)C4CCC(=O)NCCN1CCNCC1)c(C(=O)NCCN1CCNCC1)c3C.[Pd+2]` (stereo not drawn) [Compound 41, Palladium 3^1-oxo-15-methoxycarbonylmethyl-Rhodobacteriochlorin-13^1, 17^3-di(2-piperazino-N-ethyl)amide]: the IC50 is 1130 nM under setting [1] and 460 nM under setting [2].
Regarding `CCC1c2cc3[n-]c(c(CC(=O)OC)c4nc(cc5[n-]c(cc(n2)C1C)c(C(C)=O)c5C)C(C)C4CCC(=O)NCCCNCCCN)c(C(=O)NCCCNCCCN)c3C.[Pd+2]` (stereo not drawn) [Compound 42, Palladium 3^1-oxo-15-methoxycarbonylmethyl-Rhodobacteriochlorin-13^1, 17^3-di-(3-[(3-aminopropyl)amino]propyl)amide], the half-inhibitory concentration (IC50) by setting is: under setting [1], 680 nM; under setting [2], 280 nM.
